Test results taken from patent publication US7138361B2, “Herbicidal heterocycles” (E. I. du Pont de Nemours and Company, priority 2000, dated 2006).

Key:
Type in all cases: in vivo
[1] = system: morningglory (Ipomoea hederacea); experiment: Test C postemergence
Summary of the method: (§1)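 Visual 0–100 rating vs controls (0 = no effect, 100 = complete control) at 12–14 d, greenhouse. Compounds in non-phytotoxic solvent + surfactant; pre: sprayed after seeding; post: 1–4-leaf plants, 2–18 cm.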

[2] = system: winter barley (Hordeum vulgare); experiment: Test C postemergence
Summary of the method: as §1

[3] = system: woolly cupgrass (Eriochloa villosa); experiment: Test C postemergence
Summary of the method: as §1

[4] = system: Italian ryegrass (Lolium multiflorum); experiment: Test C postemergence
Summary of the method: as §1

[5] = system: blackgrass (Alopecurus myosuroides); experiment: Test C postemergence
Summary of the method: as §1

[6] = system: canary grass (Phalaris minor); experiment: Test C postemergence
Summary of the method: as §1

[7] = system: downy brome (Bromus tectorum); experiment: Test C postemergence
Summary of the method: as §1

[8] = system: green foxtail (Setaria viridis); experiment: Test C postemergence
Summary of the method: as §1

[9] = system: wheat (Triticum aestivum); experiment: Test C postemergence
Summary of the method: as §1

wild oat (Avena fatua) = experiment: Test C postemergence
Summary of the method: as §1

[10] = system: windgrass (Apera spica-venti); experiment: Test C postemergence
Summary of the method: as §1

[11] = system: morning glory (Ipomoea spp.); experiment: Test A postemergence, sprayed to runoff; set-up: scale not given here; details: Morningglory, approx. eleven days
Protocol: (§2) Seeds of barnyardgrass (Echinochloa crus-galli), crabgrass (Digitaria spp.), giant foxtail (Setaria viridis), morning glory (Ipomoea spp.), redroot pigweed (Amaranthus retroflexus) and velvetleaf (Abutilon theophrasti) were planted into a sandy loam soil and treated preemergence by soil drench with test chemicals formulated in a non-phytotoxic solvent mixture which included a surfactant. At the same time, these crop and weed species were also treated postemergence sprayed to runoff with test chemicals formulated in the same manner. Plants ranged in height from two to eighteen cm and were in the one- to two-leaf stage for the postemergence treatment. Treated plants and untreated controls were maintained in a greenhouse for approximately eleven days, after which time all treated plants were compared to untreated controls and visually evaluated for injury. Plant response ratings, summarized in Table A, are based on a 0 to 10 scale where 0 is no effect and 10 is complete control. A dash (-) response means no test results.

[12] = system: velvetleaf (Abutilon theophrasti); experiment: Test A postemergence, sprayed to runoff; set-up: scale not given here; details: approx. eleven days
Protocol: as §2

[13] = system: barnyardgrass (Echinochloa crus-galli); experiment: Test A postemergence, sprayed to runoff; details: approx. eleven days
Protocol: as §2

[14] = system: crabgrass (Digitaria spp.); experiment: Test A postemergence, sprayed to runoff; details: approx. eleven days
Protocol: as §2

[15] = system: giant foxtail (Setaria viridis); experiment: Test A postemergence, sprayed to runoff; details: approx. eleven days
Protocol: as §2

[16] = system: redroot pigweed (Amaranthus retroflexus); experiment: Test A postemergence, sprayed to runoff; details: approx. eleven days
Protocol: as §2

[17] = system: barnyardgrass (Echinochloa crus-galli); experiment: Test A preemergence, soil drench; details: approx. eleven days
Protocol: as §2

[18] = system: crabgrass (Digitaria spp.); experiment: Test A preemergence, soil drench; details: approx. eleven days
Protocol: as §2

[19] = system: giant foxtail (Setaria viridis); experiment: Test A preemergence, soil drench; details: approx. eleven days
Protocol: as §2

[20] = system: morning glory (Ipomoea spp.); experiment: Test A preemergence, soil drench; details: Morningglory, approx. eleven days
Protocol: as §2

[21] = system: redroot pigweed (Amaranthus retroflexus); experiment: Test A preemergence, soil drench; details: approx. eleven days
Protocol: as §2

[22] = system: velvetleaf (Abutilon theophrasti); experiment: Test A preemergence, soil drench; details: approx. eleven days
Protocol: as §2

[23] = Rate 250 g/ha, scale 0 to 100 (0 no effect, 100 complete control)
[24] = Rate 125 g/ha, scale 0 to 100, 0 no effect, 100 complete control
[25] = Rate 500 g/ha, scale 0 to 100 (0 no effect, 100 complete control)

Cc1ccc(N2CCC(n3ccc(C(C)(C)C)n3)C2=O)cc1OCCCl (centres unmarked) [Compound 109]
Plant response rating, Morningglory ([1]; Rate 31 g/ha, scale 0 to 100): 60
Plant response rating, Morningglory ([1]; Rate 62 g/ha, scale 0 to 100): 100
Plant response rating, Barley, Winter [2, 23]: 0
Plant response rating, Cupgrass, Woolly ([3]; Rate 31 g/ha, scale 0 to 100): 0
Plant response rating, Cupgrass, Woolly ([3]; Rate 62 g/ha, scale 0 to 100): 0
Plant response rating, Cupgrass, Woolly [3, 23]: 0

CC1(c2ccn(C3OCN(c4cccc(OC(F)(F)F)c4)C3=O)n2)CC1 (centres unmarked) [Compound 69]
Plant response rating, Ryegrass ([4]; Rate 62 g/ha, scale 0 to 100): 0
Plant response rating, Ryegrass [4, 24]: 0
Plant response rating, Ryegrass [4, 23]: 0
Plant response rating, Ryegrass [4, 25]: 30
Plant response rating, Blackgrass ([5]; Rate 62 g/ha, scale 0 to 100): 0
Plant response rating, Blackgrass [5, 24]: 0
Plant response rating, Blackgrass [5, 23]: 0
Plant response rating, Blackgrass [5, 25]: 20
Plant response rating, Canarygrass ([6]; Rate 62 g/ha, scale 0 to 100): 0
Plant response rating, Canarygrass [6, 24]: 0
Plant response rating, Canarygrass [6, 23]: 0
Plant response rating, Canarygrass [6, 25]: 0
Plant response rating, Downy Brome ([7]; Rate 62 g/ha, scale 0 to 100): 0
Plant response rating, Downy Brome [7, 24]: 0
Plant response rating, Downy Brome [7, 23]: 0
Plant response rating, Downy Brome [7, 25]: 0
Plant response rating, Foxtail, Green ([8]; Rate 62 g/ha, scale 0 to 100): 0
Plant response rating, Foxtail, Green [8, 24]: 30
Plant response rating, Foxtail, Green [8, 23]: 30
Plant response rating, Foxtail, Green [8, 25]: 60
Plant response rating, Wheat ([9]; Rate 62 g/ha, scale 0 to 100): 0
Plant response rating, Wheat [9, 24]: 0
Plant response rating, Wheat [9, 23]: 0
Plant response rating, Wheat [9, 25]: 0
Plant response rating, Wild Oat (wild oat (Avena fatua); Rate 62 g/ha, scale 0 to 100): 0
Plant response rating, Wild Oat (wild oat (Avena fatua); [24]): 0
Plant response rating, Wild Oat (wild oat (Avena fatua); [23]): 0
Plant response rating, Wild Oat (wild oat (Avena fatua); [25]): 20
Plant response rating, Windgrass ([10]; Rate 62 g/ha, scale 0 to 100): 0
Plant response rating, Windgrass [10, 24]: 0
Plant response rating, Windgrass [10, 23]: 0
Plant response rating, Windgrass [10, 25]: 20
Plant response rating, Barley, Winter ([2]; Rate 62 g/ha, scale 0 to 100): 0
Plant response rating, Barley, Winter [2, 24]: 0
Plant response rating, Barley, Winter [2, 25]: 10

CC(C)(C)c1ccn(C2OCN(c3cccc(C(F)(F)F)c3)C2=O)n1 (centres unmarked) [compound 9]
Plant response rating (visual injury vs untreated controls) ([11]; Rate 500 g/ha): 10
Plant response rating (visual injury vs untreated controls) ([11]; Rate 2000 g/ha): 10
Plant response rating (visual injury vs untreated controls) ([12]; Rate 500 g/ha): 0
Plant response rating (visual injury vs untreated controls) ([12]; Rate 2000 g/ha): 40
Plant response rating (visual injury vs untreated controls) ([13]; Rate 500 g/ha): 80
Plant response rating (visual injury vs untreated controls) ([13]; Rate 2000 g/ha): 90
Plant response rating (visual injury vs untreated controls) ([14]; Rate 500 g/ha): 20
Plant response rating (visual injury vs untreated controls) ([14]; Rate 2000 g/ha): 10
Plant response rating (visual injury vs untreated controls) ([15]; Rate 500 g/ha): 30
Plant response rating (visual injury vs untreated controls) ([15]; Rate 2000 g/ha): 100
Plant response rating (visual injury vs untreated controls) ([16]; Rate 500 g/ha): 20
Plant response rating (visual injury vs untreated controls) ([16]; Rate 2000 g/ha): 80
Plant response rating (visual injury vs untreated controls) ([17]; Rate 500 g/ha): 100
Plant response rating (visual injury vs untreated controls) ([17]; Rate 2000 g/ha): 100
Plant response rating (visual injury vs untreated controls) ([18]; Rate 500 g/ha): 90
Plant response rating (visual injury vs untreated controls) ([18]; Rate 2000 g/ha): 100
Plant response rating (visual injury vs untreated controls) ([19]; Rate 500 g/ha): 100
Plant response rating (visual injury vs untreated controls) ([19]; Rate 2000 g/ha): 100
Plant response rating (visual injury vs untreated controls) ([20]; Rate 500 g/ha): 0
Plant response rating (visual injury vs untreated controls) ([20]; Rate 2000 g/ha): 0
Plant response rating (visual injury vs untreated controls) ([21]; Rate 500 g/ha): 100
Plant response rating (visual injury vs untreated controls) ([21]; Rate 2000 g/ha): 100
Plant response rating (visual injury vs untreated controls) ([22]; Rate 500 g/ha): 20
Plant response rating (visual injury vs untreated controls) ([22]; Rate 2000 g/ha): 10

O=C1C(n2cc(Cl)c(C3CC3)n2)CCN1c1cccc(C(F)(F)F)c1 (centres unmarked) [Compound 12]
Plant response rating (visual injury vs untreated controls) ([11]; Rate 500 g/ha): 0
Plant response rating (visual injury vs untreated controls) ([11]; Rate 2000 g/ha): 0
Plant response rating (visual injury vs untreated controls) ([12]; Rate 500 g/ha): 0
Plant response rating (visual injury vs untreated controls) ([12]; Rate 2000 g/ha): 0
Plant response rating (visual injury vs untreated controls) ([13]; Rate 500 g/ha): 0
Plant response rating (visual injury vs untreated controls) ([13]; Rate 2000 g/ha): 0
Plant response rating (visual injury vs untreated controls) ([14]; Rate 500 g/ha): 0
Plant response rating (visual injury vs untreated controls) ([14]; Rate 2000 g/ha): 0
Plant response rating (visual injury vs untreated controls) ([15]; Rate 500 g/ha): 0
Plant response rating (visual injury vs untreated controls) ([15]; Rate 2000 g/ha): 0
Plant response rating (visual injury vs untreated controls) ([16]; Rate 500 g/ha): 0
Plant response rating (visual injury vs untreated controls) ([16]; Rate 2000 g/ha): 0
Plant response rating (visual injury vs untreated controls) ([17]; Rate 500 g/ha): 0
Plant response rating (visual injury vs untreated controls) ([17]; Rate 2000 g/ha): 0
Plant response rating (visual injury vs untreated controls) ([18]; Rate 500 g/ha): 0
Plant response rating (visual injury vs untreated controls) ([18]; Rate 2000 g/ha): 60
Plant response rating (visual injury vs untreated controls) ([19]; Rate 500 g/ha): 0
Plant response rating (visual injury vs untreated controls) ([19]; Rate 2000 g/ha): 30
Plant response rating (visual injury vs untreated controls) ([20]; Rate 500 g/ha): 0
Plant response rating (visual injury vs untreated controls) ([20]; Rate 2000 g/ha): 0
Plant response rating (visual injury vs untreated controls) ([21]; Rate 500 g/ha): 0
Plant response rating (visual injury vs untreated controls) ([21]; Rate 2000 g/ha): 40
Plant response rating (visual injury vs untreated controls) ([22]; Rate 500 g/ha): 0
Plant response rating (visual injury vs untreated controls) ([22]; Rate 2000 g/ha): 0

CCC(CC)c1ccn(C2OCN(c3cccc(OC(F)(F)F)c3)C2=O)n1 (centres unmarked) [Compound 68]
Plant response rating, Morningglory ([1]; Rate 62 g/ha, scale 0 to 100): 50
Plant response rating, Morningglory [1, 24]: 60
Plant response rating, Morningglory [1, 23]: 60
Plant response rating, Morningglory [1, 25]: 70
Plant response rating, Barley, Winter [2, 23]: 0
Plant response rating, Cupgrass, Woolly ([3]; Rate 62 g/ha, scale 0 to 100): 0
Plant response rating, Cupgrass, Woolly [3, 24]: 0
Plant response rating, Cupgrass, Woolly [3, 23]: 0
Plant response rating, Cupgrass, Woolly [3, 25]: 30

O=C1C(n2cccn2)CCN1c1cccc(C(F)(F)F)c1 (centres unmarked) [Compound 15]
Plant response rating (visual injury vs untreated controls) ([11]; Rate 500 g/ha): 30
Plant response rating (visual injury vs untreated controls) ([11]; Rate 2000 g/ha): 20
Plant response rating (visual injury vs untreated controls) ([12]; Rate 500 g/ha): 0
Plant response rating (visual injury vs untreated controls) ([12]; Rate 2000 g/ha): 10
Plant response rating (visual injury vs untreated controls) ([13]; Rate 500 g/ha): 10
Plant response rating (visual injury vs untreated controls) ([13]; Rate 2000 g/ha): 10
Plant response rating (visual injury vs untreated controls) ([14]; Rate 500 g/ha): 10
Plant response rating (visual injury vs untreated controls) ([14]; Rate 2000 g/ha): 10
Plant response rating (visual injury vs untreated controls) ([15]; Rate 500 g/ha): 10
Plant response rating (visual injury vs untreated controls) ([15]; Rate 2000 g/ha): 10
Plant response rating (visual injury vs untreated controls) ([16]; Rate 500 g/ha): 0
Plant response rating (visual injury vs untreated controls) ([16]; Rate 2000 g/ha): 0
Plant response rating (visual injury vs untreated controls) ([17]; Rate 500 g/ha): 10
Plant response rating (visual injury vs untreated controls) ([17]; Rate 2000 g/ha): 10
Plant response rating (visual injury vs untreated controls) ([18]; Rate 500 g/ha): 80
Plant response rating (visual injury vs untreated controls) ([18]; Rate 2000 g/ha): 100
Plant response rating (visual injury vs untreated controls) ([19]; Rate 500 g/ha): 50
Plant response rating (visual injury vs untreated controls) ([19]; Rate 2000 g/ha): 100
Plant response rating (visual injury vs untreated controls) ([20]; Rate 500 g/ha): 0
Plant response rating (visual injury vs untreated controls) ([20]; Rate 2000 g/ha): 0
Plant response rating (visual injury vs untreated controls) ([21]; Rate 500 g/ha): 30
Plant response rating (visual injury vs untreated controls) ([21]; Rate 2000 g/ha): 100
Plant response rating (visual injury vs untreated controls) ([22]; Rate 500 g/ha): 30
Plant response rating (visual injury vs untreated controls) ([22]; Rate 2000 g/ha): 100
